From patent publication US12617756B2 (ABIVAX, priority 2019, dated 2026)

test system: RSV A2; assay: Screening for RSV inhibition using Viral ToxGlo assay (cytopathic effect inhibition in HEp-2 cells); type: cell-based, Respiratory Syncytial Virus (RSV); details: human respiratory syncytial virus; RSV A2 in HEp-2 cells, MOI 0.5, 72h p.i., cytopathic effect inhibition relative to virus control, Viral ToxGlo luminescence
Method: Protocol for Screening Antiviral Compounds for RSV Inhibition and Cytotoxicity Using Viral ToxGlo Assay
HEp-2 cells were maintained in Eagle's minimum essential medium (EMEM) with Earle's BSS adjusted to contain 2 mM L-glutamine, 10% fetal bovine serum, 100 U/ml penicillin and 100 µg/ml streptomycin. For the purposes of the screening assay they were grown to 90% confluency, trypsinized and recovered. The trypsin was neutralised with cell culture media and cells were centrifuged at 150×g for 5 minutes before discarding the supernatant and resuspending cell pellet in assay media (EMEM with Earle's BSS adjusted to contain 2 mM L-glutamine, 2% fetal bovine serum and 100 U/ml penicillin and 100 µg/ml streptomycin). The cells were seeded into white clear-bottomed cell culture plates at a density of 1.5×10^4 cells/well in 50 μl and 4×10^3 cells/well in 25 μl for 96 well plates and 384 well plates respectively. For the media/background control column assay media only was added. Cell plates were placed in a humid chamber and incubated overnight at 37° C./5% CO2. After overnight incubation cells were checked for confluency and healthy appearance.
Test articles were made up at 10× test concentration in a maximum DMSO concentration of 10% (final assay concentration maximal 1% DMSO) and added to the cell plates in volumes of […] for 96 well plates and 5 μl for 384 well plates. For cell control and virus control wells the test article solvent only was added. Virus or assay media for cytotoxicity test wells and media/cell control wells was added immediately after test articles at an MOI of […] for 96 and 384 well plates respectively. Virus suspension was prepared by thawing RSV A2 frozen stocks and diluting to the required concentration of plaque forming units in assay media on ice.
Cell plates were further incubated inside a humid chamber for 72h p.i at 37° C./5% CO2. After the incubation period cells were observed under the microscope to check for characteristic cytopathic effect in virus control wells and healthy cells in the cell control wells. After plates were adjusted to room temperature 20/40 μl Viral ToxGlo (Promega) was added to each well of the 384/96 well cell plates. Plates were incubated at room temperature, protected from light on a plate rocker for 20 minutes before measuring the luminescence on a spectrophotometer (Biotek Synergy HTX).

SMILES | EC50 [nM]
COc1c(Nc2ccc(C(=O)N=C3NCCN3)cc2C2CC2)cccc1C(=O)NCCC(C)C [Compound 27, 3-cyclopropyl-N-[(2Z)-imidazolidin-2-ylidene]-4-({2-methoxy-3-[(3-methylbutyl)carbamoyl]phenyl}amino)benzamide] | 41.4
O=C(N=C1NCCN1)c1ccc(Nc2cccc(C(=O)NC3CCOC3)c2Cl)c(C2CC2)c1 (centres unmarked) [Compound 28, 4-({2-chloro-3-[(oxolan-3-yl)carbamoyl]phenyl}amino)-3-cyclopropyl-N-[(2Z)-imidazolidin-2-ylidene]benzamide] | 42.1
C=C(C)c1cc(C(=O)N=C2NCCN2)ccc1Nc1cccc(C(=O)NCCC(C)C)c1 [Compound 29, N-[(2E)-imidazolidin-2-ylidene]-4-({3-[(3-methylbutyl)carbamoyl]phenyl}amino)-3-(prop-1-en-2-yl)benzamide] | 42.3
CC(C)(O)c1cc(C(=O)N=C2NCCN2)ccc1Nc1cccc(C(=O)N2CCOCC2)c1C(F)(F)F [Compound 30, 3-(2-hydroxypropan-2-yl)-N-[(2E)-imidazolidin-2-ylidene]-4-{[3-(morpholine-4-carbonyl)-2-(trifluoromethyl)phenyl]amino}benzamide] | 42.7
CCC1(NC(=O)c2cccc(Nc3ccc(C(=O)N=C4NCCN4)cc3C3CC3)c2)CC1 [Compound 31, 3-cyclopropyl-4-({3-[(1-ethylcyclopropyl)carbamoyl]phenyl}amino)-N-[(2Z)-imidazolidin-2-ylidene]benzamide] | 47.7
CC(C)NC(=O)c1cc(F)cc(Nc2ccc(C(=O)N=C3NCCN3)cc2C2CC2)c1 [Compound 32, 3-cyclopropyl-4-({3-fluoro-5-[(propan-2-yl)carbamoyl]phenyl}amino)-N-[(2Z)-imidazolidin-2-ylidene]benzamide] | 49.2
CC(C)(C)c1cc(C(=O)N=C2NCCN2)ccc1Nc1cccc(C(=O)NCCC2CCCOC2)c1 (centres unmarked) [Compound 33, 3-tert-butyl-N-[(2E)-imidazolidin-2-ylidene]-4-[(3-{[2-(oxan-3-yl)ethyl]carbamoyl}phenyl)amino]benzamide] | 50.2
CC(C)NC(=S)c1cccc(Nc2ccc(C(=O)N=C3NCCN3)cc2C2CC2)c1 [Compound 34, 3-cyclopropyl-N-[(2Z)-imidazolidin-2-ylidene]-4-({3-[(propan-2-yl)carbamothioyl]phenyl}amino)benzamide] | 50.4
CC(C)(C)c1cc(C(=O)N=C2NCCN2)ccc1Nc1cccc(C(=O)NCCC2CCCCO2)c1 (centres unmarked) [Compound 35, 3-tert-butyl-N-[(2E)-imidazolidin-2-ylidene]-4-[(3-{[2-(oxan-2-yl)ethyl]carbamoyl}phenyl)amino]benzamide] | 51.6
CC(C)NC(=O)c1cccc(Nc2ccc(C(=O)/N=C3\NCCN3C)cc2C2CC2)c1 [Compound 36, 3-cyclopropyl-N-[(2E)-1-methylimidazolidin-2-ylidene]-4-({3-[(propan-2-yl)carbamoyl]phenyl}amino)benzamide] | 55.4
CC(C)C(=O)Nc1cccc(Nc2ccc(C(=O)N=C3NCCN3)cc2C(C)(C)C)c1 [Compound 37, 3-tert-butyl-N-[(2E)-imidazolidin-2-ylidene]-4-{[3-(2-methylpropanamido)phenyl]amino}benzamide] | 55.5
CC(C)N(C)C(=O)c1cccc(Nc2ccc(C(=O)N=C3NCCN3)cc2C(C)(C)C)c1 [Compound 38, 3-tert-butyl-N-[(2E)-imidazolidin-2-ylidene]-4-({3-[methyl(propan-2-yl)carbamoyl]phenyl}amino)benzamide] | 63.7
CC(C)(C)c1cc(C(=O)N=C2NCCN2)ccc1Nc1cccc(C(=O)NCCC2CCOCC2)c1 [Compound 39, 3-tert-butyl-N-[(2E)-imidazolidin-2-ylidene]-4-[(3-{[2-(oxan-4-yl)ethyl]carbamoyl}phenyl)amino]benzamide] | 66.2
Cc1c(C(=O)NCCC(C)C)ccnc1Nc1ccc(C(=O)N=C2NCCN2)cc1C1CC1 [Compound 40, 2-[(2-cyclopropyl-4-{[(2E)-imidazolidin-2-ylidene]carbamoyl}phenyl)amino]-3-methyl-N-(3-methylbutyl)pyridine-4-carboxamide] | 69.2
O=C1CN/C(=N\C(=O)c2ccc(Nc3cccc(OCCCC4CCCCC4)c3)c(C3CC3)c2)N1 [Compound 41, 4-{[3-(3-cyclohexylpropoxy)phenyl]amino}-3-cyclopropyl-N-[(2E)-4-oxoimidazolidin-2-ylidene]benzamide] | 77.2
O=C(N=C1NCCN1)c1ccc(Nc2cccc(C(=O)N3CCOCC3)c2C2CC2)c(C(F)(F)F)c1 [Compound 42, 4-{[2-cyclopropyl-3-(morpholine-4-carbonyl)phenyl]amino}-N-[(2Z)-imidazolidin-2-ylidene]-3-(trifluoromethyl)benzamide] | 78.4
CC(C)NC(=O)c1cccc(Nc2ccc(C(=O)/N=C3\NCCN3C3CC3)cc2C2CC2)c1 [Compound 43, 3-cyclopropyl-N-[(2E)-1-cyclopropylimidazolidin-2-ylidene]-4-({3-[(propan-2-yl)carbamoyl]phenyl}amino)benzamide] | 79.8
CC(C)CCNC(=O)c1cccc(Nc2ccc(C(=O)N=C3NCCN3)cc2C(C)(C)O)c1 [Compound 44, 3-(2-hydroxypropan-2-yl)-N-[(2E)-imidazolidin-2-ylidene]-4-({3-[(3-methylbutyl)carbamoyl]phenyl}amino)benzamide] | 90.4
CC(C)(O)c1cc(C(=O)N=C2NCCN2)ccc1Nc1cccc(C(=O)N2CCOCC2)c1Cl [Compound 45, 4-{[2-chloro-3-(morpholine-4-carbonyl)phenyl]amino}-3-(2-hydroxypropan-2-yl)-N-(imidazolidin-2-ylidene)benzamide] | 91.5
CC(=O)N1CCN/C1=N\C(=O)c1ccc(Nc2cccc(OCCCC3CCCCC3)c2)c(C2CC2)c1 [Compound 46, N-[(2E)-1-acetylimidazolidin-2-ylidene]-4-{[3-(3-cyclohexylpropoxy)phenyl]amino}-3-cyclopropylbenzamide] | 104
CC1(NC(=O)c2cc(F)cc(Nc3ccc(C(=O)N=C4NCCN4)cc3C3CC3)c2)CC1 [Compound 47, 3-cyclopropyl-4-({3-fluoro-5-[(1-methylcyclopropyl)carbamoyl]phenyl}amino)-N-[(2Z)-imidazolidin-2-ylidene]benzamide] | 113
CC(C)(C)c1cc(C(=O)N=C2NCCN2)ccc1Nc1cccc(C(=O)NCCC2CCOC2)c1 (centres unmarked) [Compound 48, 3-tert-butyl-N-[(2E)-imidazolidin-2-ylidene]-4-[(3-{[2-(oxolan-3-yl)ethyl]carbamoyl}phenyl)amino]benzamide] | 117
CC(C)NC(=O)c1cccc(Nc2ccc(C(=O)/N=C3\NCC(=O)N3)cc2C(C)(C)C)c1 [Compound 49, 3-tert-butyl-N-[(2E)-4-oxoimidazolidin-2-ylidene]-4-({3-[(propan-2-yl)carbamoyl]phenyl}amino)benzamide] | 118
O=C(N=C1NCCN1)c1ccc(Nc2cccc(C(=O)NC3CCOCC3)c2Cl)c(C2CC2)c1 [Compound 50, 4-({2-chloro-3-[(oxan-4-yl)carbamoyl]phenyl}amino)-3-cyclopropyl-N-[(2E)-imidazolidin-2-ylidene]benzamide] | 136
O=C(N=C1NCCN1)c1ccc(Nc2cccc(OCC3COCCO3)c2)c(C2CCCC2)c1 (centres unmarked) [Compound 51, 3-cyclopentyl-4-({3-[(1,4-dioxan-2-yl)methoxy]phenyl}amino)-N-[(2E)-imidazolidin-2-ylidene]benzamide] | 140
CC(C)(C)c1cc(C(=O)N=C2NCCN2)ccc1Nc1cccc(OCC2COCCO2)c1 (centres unmarked) [Compound 52, 3-tert-butyl-4-({3-[(1,4-dioxan-2-yl)methoxy]phenyl}amino)-N-[(2E)-imidazolidin-2-ylidene]benzamide] | 142
O=C(N=C1NCCN1)c1ccc(Nc2cccc(C(=O)NC3(C(F)(F)F)CC3)c2)c(C2CC2)c1 [Compound 53, 3-cyclopropyl-N-[(2Z)-imidazolidin-2-ylidene]-4-[(3-{[1-(trifluoromethyl)cyclopropyl]carbamoyl}phenyl)amino]benzamide] | 153
CC(C)NC(=O)c1ccccc1Nc1ccc(C(=O)N=C2NCCN2)cc1C(C)(C)C [Compound 54, 3-tert-butyl-N-[(2E)-imidazolidin-2-ylidene]-4-({2-[(propan-2-yl)carbamoyl]phenyl}amino)benzamide] | 166
CC(C)CCNC(=O)c1ccnc(Nc2ccc(C(=O)N=C3NCCN3)cc2C(C)(C)C)c1 [Compound 55, 2-[(2-tert-butyl-4-{[(2E)-imidazolidin-2-ylidene]carbamoyl}phenyl)amino]-N-(3-methylbutyl)pyridine-4-carboxamide] | 168
